Here are results for one substance from US20110300129A1, “SYSTEMS AND METHODS FOR ENHANCING VACCINE EFFICACY” (UNIVERSITY OF ROCHESTER, priority 2008, published 2011).

Data set [1] concerns BLIMP-1 expression in B cells. The data set is described as follows: BLIMP-1 expression in B cells, Western blot densitometry. It is filed as cell-based, human. Particulars: CpG treatment. Here is the method: Western Blots: Whole cell extracts were collected using ELB buffer (50 mM HEPES (pH 7), 250 mM NaCl, 0.1% Nonidet P-40, 5 mM EDTA, 10 mM NaF, 0.1 mM Na3VO4, 50 μM ZnCl2, supplemented with 0.1 mM PMSF, 1 mM DTT, and a mixture of protease and phosphatase inhibitors) and total protein was quantified using bicinchoninic acid protein assay (BCA assay kit) (Pierce, Rockford, Ill.). Twenty-five micrograms of protein was electrophoresed on 8-16% Precise™ protein gels (Pierce, Rockford, Ill.) and transferred to polyvinylidene fluoride (PVDF) membrane (Millipore, Billerica, Mass.). The membranes were analyzed for immunoreactivity with the indicated primary antibody, washed and then incubated with an appropriate horseradish peroxidase-conjugated secondary antibody. The membranes were visualized by chemiluminescence using an ECL kit (Pierce, Rockford, Ill.).
Lastly, BLIMP-1 expression was evaluated. BLIMP-1 is a transcription factor important in B cell differentiation (Shaffer et al., “Blimp-1 Orchestrates Plasma Cell Differentiation by Extinguishing the Mature B Cell Gene Expression Program,” Immunity 17:51-62 (2002), which is hereby incorporated by reference in its entirety). […] When B cells were treated with a combination of CpG and PPARγ ligands, there was a further increase in BLIMP-1 expression.

The next data set concerns the target T1, PPARγ (Homo sapiens, UniProt P37231).
T1 construct: normal B cells were transfected with a PPARγ luciferase reporter construct; endogenous in cells
T1 sequence (P37231 1-505): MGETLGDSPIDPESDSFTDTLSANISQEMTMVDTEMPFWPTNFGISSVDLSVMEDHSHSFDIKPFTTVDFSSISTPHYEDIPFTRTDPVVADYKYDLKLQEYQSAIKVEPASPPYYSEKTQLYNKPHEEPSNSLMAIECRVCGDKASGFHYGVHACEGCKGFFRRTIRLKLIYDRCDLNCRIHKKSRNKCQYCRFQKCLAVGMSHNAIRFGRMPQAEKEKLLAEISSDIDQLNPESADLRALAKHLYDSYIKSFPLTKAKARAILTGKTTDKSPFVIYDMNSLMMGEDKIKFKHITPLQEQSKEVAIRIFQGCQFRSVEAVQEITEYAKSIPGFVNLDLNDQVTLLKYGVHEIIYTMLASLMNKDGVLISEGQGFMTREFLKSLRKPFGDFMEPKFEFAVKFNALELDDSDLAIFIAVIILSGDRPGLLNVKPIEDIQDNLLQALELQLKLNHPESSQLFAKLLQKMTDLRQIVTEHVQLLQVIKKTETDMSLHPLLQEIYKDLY
Nature of the data set: PPARγ gene reporter analysis (PPRE-luciferase) in transfected B cells. Particulars: CpG-activated B cells with no exogenous PPARγ ligand. It is filed as cell-based. Here is the method:
Twenty-four hours after treatments, luciferase activity was assayed using the Promega Luciferase Assay System (Madison, Wis.). Relative light units (RLU) were determined with a Lumicount Microplate Luminometer (Packard Instrument Co., Meriden, Conn., USA). Relative light units (RLU) were normalized to transfection efficiency that was monitored by cotransfection of GFP expression vector.
To test whether the PPARγ ligand concentrations used here activated PPARγ, normal B cells were transfected with a PPARγ luciferase reporter construct.

Data set [2] has as its system PPARγ expression in human B cells. The data set is described as follows: Intracellular PPARγ staining of B cells, flow cytometry. It is filed as cell-based. To be noted: activated B cells. Here is the method:
For intracellular staining for PPARγ, untreated or activated B lymphocytes were surface stained with 20 μl of APC anti-human CD19 mAb (BD Biosciences) for 30 minutes in the dark at room temperature (RT). Cells were then fix and permeabilized with BD Cytofix/Cytoperm Fixation/Permeabilization Kit following the manufacturer's instructions. A FITC-Conjugated anti-human PPARγ antibody was used at a 1/100 dilution. An equal amount of IgG1 FITC mAb was used as an isotype control.
A general note: In flow cytometry, cells or beads pass a laser one at a time.

Data set [3] has the same test system. Nature of the data set: PPARγ expression in activated B cells, Western blot densitometry. It is filed as cell-based. To be noted: 48 hr; 2 μg/ml anti-IgM Ab, 1 μg/ml CpG; three donors; 'up to'. An excerpt:
B Cell Isolation: Normal B lymphocytes were isolated from a unit of whole blood from healthy donors with ethical permission from the Research Subjects Review Board at the University of Rochester. The isolation of normal B lymphocytes has been previously described (Ryan, et al., “Activated Human B Lymphocytes Express Cyclooxygenase-2 and Cyclooxygenase Inhibitors Attenuate Antibody Production,” J Immunol 174:2619-2626 (2005), which is hereby incorporated by reference in its entirety). Briefly, buffy coats were obtained from whole blood and peripheral blood mononuclear cells (PBMCs) were obtained using Ficoll-Paque (Amersham Biosciences AB) gradient centrifugation. […] B lymphocyte purity was >98% CD19 positive (as determined by flow cytometry, data not shown). […]
Western Blots: Whole cell extracts were collected using ELB buffer (50 mM HEPES (pH 7), 250 mM NaCl, 0.1% Nonidet P-40, 5 mM EDTA, 10 mM NaF, 0.1 mM Na3VO4, 50 μM ZnCl2, supplemented with 0.1 mM PMSF, 1 mM DTT, and a mixture of protease and phosphatase inhibitors) and total protein was quantified using bicinchoninic acid protein assay (BCA assay kit) (Pierce, Rockford, Ill.). […] The membranes were analyzed for immunoreactivity with the indicated primary antibody, washed and then incubated with an appropriate horseradish peroxidase-conjugated secondary antibody. […]
A general note: A western blot detects proteins with antibodies after separation by electrophoresis.

Data set [4] deals with purified human B lymphocytes. Nature of the data set: Antibody production, IgM and IgG ELISA of B cell supernatants. It is filed as cell-based. Particulars: CpG 1 μg/ml alone, 5 days. Here is the method: Antibody Production: Purified human B lymphocytes (5×10^5 cells/ml) were cultured in 96-well round-bottom microtiter plates. […] Pilot experiments were performed to optimize the doses of PPARγ and RXR ligands. […] Supernatants were harvested and the concentrations of IgM and IgG were analyzed using human-specific ELISAs (Bethyl Laboratories).
(In an ELISA, binding on a coated surface is turned into a signal by an enzyme label.)

Data set [5] relates to Cox-2 expression in B cells. Nature of the data set: Cox-2 intracellular staining of CD19+ B cells, flow cytometry. It is filed as cell-based, human. Here is the method: Intracellular and Surface Labeling: B cells were incubated with mouse anti-human CD19-APC (BD Biosciences), anti-human CD38-PE (BD Biosciences) and/or anti-human CD27-APC (BD Biosciences) in cold PBS with sodium azide (0.02%) and BSA (0.3%) for 20 min at 20° C. […] All samples were acquired on a BD Biosciences FACS Calibur flow cytometer and analyzed using FlowJo software (Tree Star, Inc. Ashland, Oreg.).
Therefore, the levels of Cox-2 expression were evaluated following PPARγ ligand treatment.

The test system of another data set is peripheral blood B cells. Nature of the data set: Plasma cell differentiation, CD38/CD27 surface labeling by flow cytometry. It is filed as cell-based, human. To be noted: CpG 1 μg/ml, 5 days, 9-cis-RA 100 nM. Here is the method: Intracellular and Surface Labeling: B cells were incubated with mouse anti-human CD19-APC (BD Biosciences), anti-human CD38-PE (BD Biosciences) and/or anti-human CD27-APC (BD Biosciences) in cold PBS with sodium azide (0.02%) and BSA (0.3%) for 20 min at 20° C. COX-2 intracellular staining was performed as described previously (Padilla et al., “Human B Lymphocytes and B Lymphomas Express PPAR-γ and Are Killed by PPAR-γ Agonists,” Clin Immunol 103:22-33 (2002), which is hereby incorporated by reference in its entirety). All samples were acquired on a BD Biosciences FACS Calibur flow cytometer and analyzed using FlowJo software (Tree Star, Inc. Ashland, Oreg.).
Peripheral-blood B lymphocytes include both naive and memory B cell populations. These two B cell subsets can be distinguished based on CD27 expression, which is a marker of memory B cells (Agematsu et al., “CD27: A Memory B-cell Marker,” Immunol Today 21:204-206 (2000), each of which is hereby incorporated by reference in its entirety).

Turning to “CpG: CpG oligodeoxynucleotides 2395 5′-TCGTCGTTTTCGGCGCGCGCCG-3′ (SEQ ID NO: 1), a TLR-9 ligand, mitogen (chemistry not given here)”, the “BLIMP-1 protein levels compared to untreated or freshly isolated B cells” value in data set [1] is given as “significantly upregulated”. Besides, the “PPARγ activity (PPRE reporter)” value with PPARγ was “did not induce PPARγ activity”. In addition, the “intracellular PPARγ levels compared to untreated B cells” value in data set [2] is “increased”. In data set [3], the “PPARγ protein levels increase compared to untreated B cells (densitometry of Western blot)” value is on record as no more than 14.3 fold. In addition, in data set [4], the IgG production entry is listed as “significantly induced” and the IgM production entry is “significantly induced”. The “percentage of B cells which express Cox-2” value in data set [5] (CpG 1 μg/ml, Rosiglitazone 0.5 μM, 15d-PGJ2 0.2 μM, 3% untreated) is reported as 27%. Further, in data set [5] (FIG. 6B), the “levels of Cox-2 expression (mean fluorescence intensity)” value is “increased the levels of Cox-2 expression”. Moreover, the “percentage of CD38-expressing naive B cells (CD38highCD27low)” value in the data set on peripheral blood B cells was determined as 9.1±0.6%. In the data set on peripheral blood B cells (Rosiglitazone 0.5 μM, 15d-PGJ2 0.2 μM), the “percentage of CD38highCD27high B cells (plasma cells)” value worked out at 7.0±1.7%.
